The values that follow come from paper PMC10788917 (Journal of Medicinal Chemistry, 2023).

The target of the first experiment is T1, HDAC8 (Homo sapiens, UniProt Q9BY41).
T1 construct: one additional N-terminal residue 'H' (His) (N)
T1 sequence (Q9BY41 1-377): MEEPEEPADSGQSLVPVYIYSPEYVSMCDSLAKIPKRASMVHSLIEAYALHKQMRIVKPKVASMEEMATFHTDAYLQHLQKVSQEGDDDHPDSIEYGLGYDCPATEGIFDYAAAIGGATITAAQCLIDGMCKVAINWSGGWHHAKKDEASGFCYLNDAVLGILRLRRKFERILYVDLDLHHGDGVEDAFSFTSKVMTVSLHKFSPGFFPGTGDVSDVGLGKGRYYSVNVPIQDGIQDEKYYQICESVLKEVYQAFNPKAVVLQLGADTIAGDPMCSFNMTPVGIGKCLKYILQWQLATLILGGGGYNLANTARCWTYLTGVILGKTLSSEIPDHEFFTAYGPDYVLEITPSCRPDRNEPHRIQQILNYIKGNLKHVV
The experiment can be described thus: Covalent labeling, tryptic digestion and MS/MS. In kind it is binding.
Conditions: not given
The method, then: The covalent labeling procedure was conducted as described previously with slight modifications.[31] First, 25 μM HDAC8 was treated with 250 μM covalent probes for 1 h at 30 °C in the assay buffer described above. The protein was then precipitated by the addition of 10% TCA and then centrifuged at 18000g for 15 min. The supernatant was removed, and the dry pellet was diluted in buffer [50 mM NH4HCO3 (pH 7.8)]. After the fragment labeling was completed, 50 μL of the sample and 10 μL of a 0.2% (w/v) RapiGest SF (Waters, Milford, MA) solution buffered with 50 mM ammonium bicarbonate were mixed (pH 7.8), 3.3 μL of 45 mM DTT in 100 mM NH4HCO3 was added to reduce artificial oxidized cysteine residues, and the mixture was kept at 37.5 °C for 30 min. After the sample was cooled to room temperature, reduction was quenched, and nascent thiols were alkylated by adding 4.16 μL of 100 mM iodoacetamide in 100 mM NH4HCO3. Samples were placed in the dark at room temperature for 30 min. The reduced and alkylated protein was then digested with 10 μL (1 mg/mL) of trypsin (the enzyme:protein ratio was 1:10) (Sigma, St. Louis, MO). The sample was incubated at 37 °C overnight. To degrade the surfactant, 7 μL of a formic acid (500 mM) solution was added to the digested protein sample, a final concentration of 40 mM (pH ≈2) was obtained, and the mixture was further incubated at 37 °C for 45 min. For LC-MS analysis, the acid-treated sample was centrifuged for 5 min at 13 000 rpm and the supernatant was pipetted into a microvial.
For procedure A, an AB Sciex 6500 QTRAP hybrid triple quadruple linear ion trap mass spectrometer, equipped with a Turbo V ion source in electrospray mode and an Agilent 1100 Binary Pump HPLC system (Agilent Technologies, Waldbronn, Germany) consisting of an autosampler, was used for LC-MS/MS analysis. Data acquisition and processing were performed using Analyst version 1.6.2 (AB Sciex Instruments). Chromatographic separation was achieved by using the Discovery BIO Wide Pore C-18-5 column (250 mm × 2.1 mm, 5 μm, 300 Å). The sample was eluted with a gradient of solvent A (0.1% formic acid in water) and solvent B (0.1% formic acid in ACN). The flow rate was set to 0.2 mL min^–1. The initial process for separation was as follows: 5% B for 7 min, followed by a linear gradient to 90% B by […], 90% B from 60 to 64 min, and from 64 to 65 min back to the initial condition with 5% eluent B retained for 10 min. The injection volume was 10 μL. An information-dependent acquisiton (IDA) LC-MS/MS experiment was used to identify the modified tryptic peptide fragments. An enhanced MS scan (EMS) was used as a survey scan, and an enhanced product ion scan (EPI) was the dependent scan. Precursor ion selection criteria: ions greater than m/z 400, which exceeds 106 counts, exclude former target ions for 30 s after two occurrence(s). The scan rates in both survey and dependent scans were 1000 Da/s. Nitrogen was used as the nebulizer gas (GS1), heater gas (GS2), and curtain gas with the optimum values set at 50, 40, and 40 (arbitrary units), respectively. The source temperature was 350 °C, and the ion spray voltage was set at 5000 V. The declustering potential value was set to 150 V. The collision energy in EPI experiments was set to rolling collision energy mode, where the actual value was set on the basis of the mass and charge state of the selected ion. GPMAW version 4.2 was used to analyze the large number of MS-MS spectra and identify the modified tryptically digested peptides.
For procedure B, to obtain more precise information about the structure, samples were further analyzed by a Triple TOF 5600+ hybrid Quadrupole-TOF LC/MS/MS system (Sciex) equipped with a DuoSpray IonSource coupled with a Shimadzu Prominence LC20 UFLC system consisting of a quaternary pump, an autosampler, and a thermostated column compartment. Data were acquired and processed using Analyst TF version 1.7.1 (AB Sciex Instruments). […]
As to `C#Cc1c[n+](C)ccc1NC(=O)CC(=O)N1Cc2ccccc2C1.[I-]` [compound 3, 3-Ethynyl-4-[3-(isoindolin-2-yl)-3-oxopropanamido]-1-methylpyridin-1-ium Iodide], the “covalent labeling of HDAC8 cysteine by tryptic digestion and MS/MS” value was “proved Cys153 covalent labeling”.

The same experiment, now with this note: 25 μM HDAC8, 250 μM probe, 1 h.
Consider `C[n+]1ccccc1I` [A3+], for which the “MS/MS: modified HDAC8 peptide [148-165]” value is reported as “modified” and the “MS/MS: modified HDAC8 peptide [241-250]” value is listed as “modified”.

For the molecule `C[n+]1cncc(Br)c1` [F2+], the “MS/MS: modified HDAC8 peptide [1-34]” value is “modified”, the “MS/MS: modified HDAC8 peptide [148-165]” value is reported as “modified” and the “MS/MS: modified HDAC8 peptide [260-287]” value is on record as “modified”.

Turning to `C#Cc1cc[n+](C)cc1` [C6+], the “MS/MS: modified HDAC8 peptide [1-34]” value is given as “modified”, the “MS/MS: modified HDAC8 peptide [148-165]” value is recorded as “modified” and the “MS/MS: modified HDAC8 peptide [241-250]” value is “modified”.

Regarding `C[n+]1cccnc1Cl` [D1+], the “MS/MS: modified HDAC8 peptide [1-34]” value is recorded as “modified”, the “MS/MS: modified HDAC8 peptide [148-165]” value was “modified” and the “MS/MS: modified HDAC8 peptide [241-250]” value is given as “modified”.

Turning to `C[n+]1ccc(I)cc1` [C3+], the “MS/MS: modified HDAC8 peptide [33-83]” value is “modified”, the “MS/MS: modified HDAC8 peptide [148-165]” value is reported as “modified”, the “MS/MS: modified HDAC8 peptide [241-250]” value was “modified” and the “MS/MS: modified HDAC8 peptide [260-287]” value is given as “modified”.

In the case of `C[n+]1cccnc1Br` [D2+], the “MS/MS: modified HDAC8 peptide [148-165]” value was “modified” and the “MS/MS: modified HDAC8 peptide [241-250]” value is “modified”.

For the molecule `C[n+]1cccnc1I` [D3+], the “MS/MS: modified HDAC8 peptide [1-34]” value was “modified”, the “MS/MS: modified HDAC8 peptide [148-165]” value is “modified”, the “MS/MS: modified HDAC8 peptide [241-250]” value is recorded as “modified” and the “MS/MS: modified HDAC8 peptide [260-287]” value is listed as “modified”.

On to `C#Cc1c[n+](C)ccn1` [G6+], for which the “MS/MS: modified HDAC8 peptide [1-34]” value is “modified”, the “MS/MS: modified HDAC8 peptide [148-165]” value is “modified” and the “MS/MS: modified HDAC8 peptide [260-287]” value is “modified”.

On to `C[n+]1cncc(I)c1` [F3+], for which the “MS/MS: modified HDAC8 peptide [1-34]” value was “modified”, the “MS/MS: modified HDAC8 peptide [148-165]” value was “modified”, the “MS/MS: modified HDAC8 peptide [260-287]” value is reported as “modified” and the “MS/MS: modified HDAC8 peptide [327-357]” value was “modified”.

Regarding `C#Cc1nccc[n+]1C` [D6+], the “MS/MS: modified HDAC8 peptide [1-34]” value is listed as “modified”.
